Results published in ChEMBL document CHEMBL3091347, “Comparison of Multiple Linear Regressions and Neural Networks based QSAR models for the design of new antitubercular compounds” (Eur J Med Chem, 2013).
≈ marks a conversion by molar mass, not a printed value.

Assays:
[1] = Lipophilicity, log P of the compound; settings: octanol/water
[2] = tested on: Mycobacterium tuberculosis; test: Antitubercular activity against Mycobacterium tuberculosis BCG; assay type: functional
[3] = tested on: Mycobacterium tuberculosis; test: Antitubercular activity against Mycobacterium tuberculosis; assay type: functional

Row | SMILES | logP ([1]; logP) | MIC [2] [µg/mL] | log(1/MIC) [2] | logP [1] | log(1/MIC) [3] | MIC ([3]; Mycobacterium tuberculosis) [µg/mL]
1 | NNC(=O)c1ccncn1 | -2.87 | 20 (≈ 145 µM) | -1.301 |  |  | 
2 | NNC(=O)c1ccc([N+](=O)[O-])cc1 | -1.1 | 12 (≈ 66.2 µM) | -1.079 |  |  | 
3 | NNC(=O)/C=C/c1ccccc1 | -1.23 | 0.4 (≈ 2.47 µM) | 0.3979 |  |  | 
4 | NNC(=O)C1CCNCC1 | -3.46 | 600 (≈ 4190 µM) | -2.778 |  |  | 
5 | NNC(=O)c1ccc(O)cc1 |  | 12 (≈ 78.9 µM) | -1.079 | -1.51 |  | 
6 | NNC(=O)c1ccc(Br)cc1 | 0.018 | 12 (≈ 55.8 µM) | -1.079 |  |  | 
7 | COc1cc(C(=O)NN)ccc1O | -1.79 | 30 (≈ 165 µM) | -1.477 |  |  | 
8 | NNC(=O)c1cccc(N)c1 | -2.07 | 3 (≈ 19.8 µM) | -0.4771 |  |  | 
9 | NNC(=O)c1ccncc1N | -3.12 | 1.5 (≈ 9.86 µM) | -0.1761 |  |  | 
10 | NNC(=O)c1ccc(Cl)cc1 |  | 3 (≈ 17.6 µM) | -0.4771 | -0.132 |  | 
11 | NNC(=O)c1ccccc1N | -2.07 | 30 (≈ 198 µM) | -1.477 |  |  | 
12 | NNC(=O)Cc1ccncc1 | -2.69 | 100 (≈ 662 µM) | -2 |  |  | 
13 | Cc1ccc(C)n1NC(=O)c1ccco1 | 3.04 | 15 (≈ 73.4 µM) | -1.176 |  |  | 
14 | O=C(NNS(=O)(=O)c1ccc([N+](=O)[O-])cc1)c1ccncc1 | -1.54 | 60 (≈ 186 µM) | -1.778 |  |  | 
15 | O=C(NNS(=O)(=O)c1ccccc1)c1ccncc1 | -1.29 | 3 (≈ 10.8 µM) | -0.4771 |  |  | 
16 | COc1ccc(C(=O)NN)cc1 |  | 8 (≈ 48.1 µM) | -0.9031 |  |  | 
17 | Cc1ccc(C)n1NC(=O)c1cccs1 | 1.98 | 40 (≈ 182 µM) | -1.602 |  |  | 
18 | NNC(=O)c1nc2ccccc2s1 | -1.08 | 8 (≈ 41.4 µM) | -0.9031 |  |  | 
19 | NNC(=O)c1ccc(N)cc1 |  | 6 (≈ 39.7 µM) | -0.7782 | -2.07 |  | 
20 | Cc1c(C(=O)NN)sc(C(=O)NN)c1C |  | 30 (≈ 131 µM) | -1.477 | -2.888 |  | 
21 | O=C(NNC(=O)c1ccncc1)c1ccncc1 |  | 8 (≈ 33 µM) | -0.9031 | -2.984 |  | 
22 | CC(C)N(N)C(=O)c1ccco1 | 0.115 | 15 (≈ 89.2 µM) | -1.176 |  |  | 

Row | SMILES | logP ([1]; logP) | MIC [2] [µg/mL] | log(1/MIC) [2] | logP [1] | log(1/MIC) [3] | MIC ([3]; Mycobacterium tuberculosis) [µg/mL]
23 | CCCCC/C(C)=N\NC(=O)c1cccs1 | 1.71 | 3 (≈ 12.6 µM) | -0.4771 |  |  | 
24 | O=C(NN=C1CCCCC1)c1cccs1 | 0.789 | 3 (≈ 13.5 µM) | -0.4771 |  |  | 
25 | CC(C)(C#N)NNC(=O)c1cccs1 | 0.147 | 3 (≈ 14.3 µM) | -0.4771 |  |  | 
26 | O=C(N/N=C/C(O)C(O)C(O)C(O)CO)c1cccs1 (configuration not stated) |  | 0.6 (≈ 1.97 µM) | 0.2218 | -4.917 |  | 
27 | CNC1C(OC2C(OC3C(O)C(O)C(NC(=N)N)C(O)C3NC(=N)N)OC(C)C2(O)/C=N/NC(=O)c2cccs2)OC(CO)C(O)C1O (configuration not stated) |  | 0.25 (≈ 0.354 µM) | 0.6021 |  |  | 
28 | NNC(=O)c1ccc[nH]1 | -1.99 | 60 (≈ 479 µM) | -1.778 |  |  | 
29 | NNC(=O)Cc1cc2ccccc2[nH]1 | -1.61 | 60 (≈ 317 µM) | -1.778 |  |  | 
30 | NNC(=O)c1nc2ccccc2[nH]1 | -1.73 | 15 (≈ 85.1 µM) | -1.176 |  |  | 
31 | NNC(=O)c1nccnc1C(=O)NN |  | 15 (≈ 76.5 µM) | -1.176 | -5.666 |  | 
32 | NNC(=O)c1cnc(N)s1 | -2.78 | 6 (≈ 37.9 µM) | -0.7782 |  |  | 
33 | NNC(=O)c1csc(N)n1 | -2.69 | 3 (≈ 19 µM) | -0.4771 |  |  | 
34 | NNC(=O)c1ccc(Br)o1 | 1.62 | 12 (≈ 58.5 µM) | -1.079 |  |  | 
35 | NNC(=O)c1ccc(C(=O)NN)o1 | -1.63 | 6 (≈ 32.6 µM) | -0.7782 |  |  | 
36 | NNC(=O)/C=C/c1ccco1 | -2.02 | 3 (≈ 19.7 µM) | -0.4771 |  |  | 
37 | CC(C)(C#N)NNC(=O)c1ccco1 | 1.21 | 3 (≈ 15.5 µM) | -0.4771 |  |  | 
38 | CC(C)=NNC(=O)c1ccco1 | 0.656 | 4 (≈ 24.1 µM) | -0.6021 |  |  | 
39 | CC(=O)Nc1ccc(/C=N\NC(=O)c2ccco2)cc1 | 2.64 | 4.5 (≈ 16.6 µM) | -0.6532 |  |  | 
40 | CC(=O)NNC(=O)c1ccco1 | -1.26 |  |  |  | -2.78 | 600 (≈ 3570 µM)
41 | NNC(=O)c1cc2ccccc2o1 | 0.835 | 2 (≈ 11.4 µM) | -0.301 |  |  | 
42 | NNC(=O)c1ccsc1 | -1.2 | 8 (≈ 56.3 µM) | -0.9031 |  |  | 
43 | NNC(=O)Cc1ccsc1 | -1.57 | 100 (≈ 640 µM) | -2 |  |  | 
